# Reference: patent US10525187B2, “Apparatus for removing protein-bound toxins from blood plasma” (Fresenius Medical Care Deutschland GmbH, priority 2012, dated 2020)
# Target: bovine serum albumin (Bos taurus, UniProt P02769)
# Test: Dialysis module, HF field effect in the frequency range 1 to 170 MHz on separation of phenylacetic acid (Embodiment 2)
# Assay type: in vitro ADME
# Conditions: BSA 60 mg/ml, toxin 1 mmol/l
# Protocol: A dialysis module was set up for this purpose in that conventional hemofiltration capillaries were cast as loops using silicone into a syringe receiving neck. An aqueous albumin solution was introduced into the respective module in the presence of the uremic toxins phenylacetic acid, p-hydroxyhippuric acid and indoxyl sulfate. This solution was filtered with the dialysis module using a syringe pump for 10 min. […] The electromagnetic field is incremented by means of a high-frequency voltage source over a period of 10 minutes from […] in steps of 1 MHz. […] The effect of the HF field on the bond between the proteins and the uremic toxins was able to be evaluated by a comparison of the uremic toxin concentration in the resulting filtrates.
# The HF field was varied in subbands of 10 MHz in the frequency range 1-170 MHz and was compared with a control experiment without an HF field.
# The quantitative determination of the phenylacetic acid was performed using HPLC.
# The results of the experiments are collected in FIG. 9. […] The effect was particularly pronounced at 54.6% in the subband from 110 to 120 MHz.
# Sequence of bovine serum albumin (P02769 25-607): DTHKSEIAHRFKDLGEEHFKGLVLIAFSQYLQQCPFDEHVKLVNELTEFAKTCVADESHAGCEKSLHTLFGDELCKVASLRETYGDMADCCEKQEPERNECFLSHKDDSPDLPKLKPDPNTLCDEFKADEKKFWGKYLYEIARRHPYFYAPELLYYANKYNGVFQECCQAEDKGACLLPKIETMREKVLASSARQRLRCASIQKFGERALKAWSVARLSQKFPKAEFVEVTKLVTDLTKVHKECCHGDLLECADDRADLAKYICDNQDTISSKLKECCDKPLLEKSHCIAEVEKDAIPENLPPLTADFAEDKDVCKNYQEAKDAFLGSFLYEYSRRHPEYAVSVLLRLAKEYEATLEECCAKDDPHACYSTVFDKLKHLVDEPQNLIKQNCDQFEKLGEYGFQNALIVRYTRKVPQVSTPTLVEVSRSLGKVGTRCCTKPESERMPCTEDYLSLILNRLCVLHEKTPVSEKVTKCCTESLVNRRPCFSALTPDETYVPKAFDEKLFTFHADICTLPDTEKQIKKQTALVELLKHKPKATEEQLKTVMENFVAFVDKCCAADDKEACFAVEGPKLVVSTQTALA
smiles,measurement,setting,value
O=C(O)Cc1ccccc1 [phenylacetic acid],increase of separation rate under the influence of the HF field,HF field 1-170 MHz in subbands of 10 MHz vs control without HF field,at least 45.3%
same,increase of separation rate under the influence of the HF field,subband from 110 to 120 MHz vs control without HF field,54.6%
